Laboratory results as given in patent US10570179B2, “Substituted urea depsipeptide analogs as activators of the CLPP endopeptidase” (priority 2016, dated 2020).
Numbered stars: 1 amine (or outer) side, 2 acyl side, 3 side chain; on linkers, the order of the positions; unused ones are H or OH. Bridge positions count the residues as written; N and C are the ends. Square brackets hold non-standard residues; d marks the D form. Peptide text beside a SMILES is read from it. * marks the point of attachment. X5 = O=C([C@@H]1C[C@@H](OP(=O)(O)O)CN1[*:1])[*:2]; Morpholine(3S-CO) = O=C(O)[C@@H]1COCCN1; Phe(3-Me) = Cc1cccc(C[C@H](N)C(=O)O)c1; X4 = O=C1CN([*:1])[C@H](C(=O)[*:2])CN1; NH(4-Cl-2-F-phenyl) = Fc1cc(Cl)ccc1N*; Pro(4R-Me) = C[C@H]1CN[C@H](C(=O)O)C1; Hyp = O=C(O)[C@@H]1C[C@@H](O)CN1; NH(4-Et-phenyl) = CCc1ccc(N*)cc1; NH(4-Me-phenyl) = Cc1ccc(N*)cc1; aThr = C[C@H](O)[C@H](N)C(=O)O; Pip = O=C(O)[C@@H]1CCCCN1; X3 = c1cc2c(cc1N*)OCCO2; CO = O=C([*:1])[*:2]

How the values were obtained:
[1] = Microsomal metabolic stability; assay type: in vitro ADME, human
Protocol: Compounds were initially prepared by dissolving them into DMSO at a final concentration of 10 mM. NADPH regenerating solutions A and B and mouse liver microsomes (CD-1) were obtained from BD Gentest (Woburn, Mass.). Ninety-six well deep well plates were obtained from MidWest Scientific Inc (Valley Park, Mo.).
Sample preparation for microsomal stability was modified from methods of Di, L., et al., Int J Pharm. 2005 Jun. 13; 297(1-2):110-9. A set of incubation times of 0, 15, 30, 60, 120, and 240 minutes were used. Mouse liver microsomal solutions were prepared by adding 58 μL of concentrated human or mouse liver microsomes (20 mg/mL protein concentration) to 1.756 mL of 0.1 M potassium phosphate buffer (pH 7.4) and 5 μL of 0.5 M EDTA to make a 0.6381 mg/mL (protein) microsomal solution. NADPH regenerating agent contained 113 μL of NADPH A, 23 μL of NADPH B, and 315 μL of 0.1 M potassium phosphate buffer (pH 7.4). The diluted test compound solutions (2 μL) were each added directly to a 1.79 mL of liver microsomal solution. This solution was mixed and 90 μL was transferred to 6 time points plates (each in triplicate wells). For the time 0 plate, 225 μL of cold acetonitrile with internal standard ([…] warfarin) was added to each well, followed by addition of NADPH regenerating agent (22.5 μL) and no incubation. For other five time points' plate, NADPH regenerating agent (22.5 μL) was added to each well to initiate the reaction. The plates were incubated at 37° C. for the required time, followed by quenching of the reaction by adding 225 μL of cold acetonitrile with internal standard (4 μg/ml warfarin). All of the plates were sealed and mixed well at 600 rpm for 10 minutes followed by centrifugation at 4000 rpm for 20 minutes. The supernatants (120 μL) were transferred to analytical plates for analysis by LCMS. LCMS conditions were described in the materials and instrumentation section above. The metabolic stability is evaluated via the half-life from least-squares fit of the multiple time points based on first-order kinetics.

[2] = Plasma protein binding, rapid equilibrium dialysis; assay type: in vitro ADME, human; details: 10 μM
Protocol: This assay determines plasma protein binding of a drug/compound and free drug concentration in plasma using rapid equilibrium dialysis, which allow the aqueous component of plasma containing the free drug/compound through a dialysis membrane (MWCO˜8,000).
Solutions were prepared at 10 mM in DMSO. Dulbecco's phosphate buffered saline (DPBS; pH 7.4) was obtained from Invitrogen (Carlsbad, Calif.). Single-Use RED (rapid equilibrium dialysis) device was obtained from Thermo scientific (Rockford, Ill.). Human plasma was obtained from Innovative Research INC (Novi, Michigan, Ill).
Sample preparation for plasma protein binding was modified from Waters' method. (Waters et al. (2008) J. Pharm. Sci. 97(10): 4586-95). The Teflon base plate with the RED inserts (MWCO 8 K) were allowed to use without any pre-condition the membrane inserts. Human plasma was thawed and centrifuged at 1000 rpm for 2 min to remove any particulates. Each compound was prepared at 10 μM in human plasma. This was done by adding 1 μL, of drug solution (10 mM in DMSO) to 1000 μL, of human plasma (0.1% DMSO). Spiked plasma solutions (300 μL) were placed into the sample chamber (indicated by the red ring) and 500 μL, of DPBS into the adjacent chamber. The plate was sealed and incubated at 37° C. on an orbital shaker (100 rpm) for 4 hours. After incubation, the seal was removed from the RED plate and the volume of the insert confirmed—little to no volume change occurred. Aliquots (50 μL) were removed from each side of the insert and dispensed into a 96-well deep plate. An equal volume of blank plasma or DPBS was added to the required wells to create analytically identical sample matrices (matrix matching). To each sample 200 μL, of ACN containing 4 μg/mL warfarin IS was added. All of the plates were sealed and mixed well at 600 rpm for 10 min and were centrifuged at 4000 rpm for 20 min. The supernatants (120 μL) were transferred to analytical plates for analysis by LCMS. Conditions for Waters ACQUITY-UPLC-MS-UV system were described separately. The test compound concentrations were quantified in both buffer and plasma chambers via peak areas relative to the internal standard. The percentage of the test compound bound to plasma was calculated on following equations: % Free=(Concentration buffer chamber/concentration plasma chamber)×100% and % Bound=100%-% Free.

[3] = microsomal metabolic stability half-life, human liver microsomes
[4] = plasma binding, % Bound, human plasma

Row | SMILES | Human [1, 3] | Human [2, 4] | Human ([1]; human, pH 7.4) | Human ([2]; human, 4 h, pH 7.4)
1 | Cc1ccc(NC(=O)N[C@@H](Cc2cccc(C)c2)C(=O)N[C@H]2COC(=O)[C@@H]3C[C@H](C)CN3C(=O)[C@H](C)NC(=O)[C@@H]3CCCCN3C(=O)[C@@H]3CCCN3C2=O)cc1 (stereo in doubt) [Compound 43, (S)—N-((2S,6S,8AS,14AS,20S,23AS)-2,6-DIMETHYL-5,8,14,19,23-PENTAOXOOCTADECAHYDRO-1H,5H,14H,19H-PYRIDO[2,1-I]DIPYRROLO[2,1-C:2′,1′-L][1]OXA[4,7,10,13]TETRAAZACYCLOHEXADECIN-20-YL)-3-(M-TOLYL)-2-(3-(P-TOLYL)UREIDO)PROPANAMIDE] | 1.36 ± 0.14 h | 72.9 ± 1.4% |  | 
2 | Cc1cccc(C[C@H](NC(=O)Nc2ccc(Cl)cc2F)C(=O)N[C@@H]2C(=O)N3CCC[C@H]3C(=O)N3CC(=O)NC[C@H]3C(=O)N[C@@H](C)C(=O)N3C[C@H](C)C[C@H]3C(=O)O[C@H]2C)c1 [Compound 20, (S)-2-(3-(4-CHLORO-2-FLUOROPHENYL)UREIDO)-3-(M-TOLYL)-N-((6AS,12S,13S,15AS,17R,21S,23AS)-13,17,21-TRIMETHYL-3,6,11,15,20,23-HEXAOXOOCTADECAHYDRO-2H,6H,11H,15H-PYRAZINO[2,1-I]DIPYRROLO[2,1-C:2′,1′-L][1]OXA[4,7,10,13]TETRAAZACYCLOHEXADECIN-12-YL)PROPANAMIDE] ({NH(4-Cl-2-F-phenyl)-CO}-[Phe(3-Me)][aThr]P[X4]A[Pro(4R-Me)]; ester 2-C) |  |  | 1.30 ± 0.09 h | 97.5 ± 0.2%
3 | Cc1cccc(C[C@H](NC(=O)Nc2ccc3c(c2)OCCO3)C(=O)N[C@@H]2C(=O)N3CCC[C@H]3C(=O)N3CCCC[C@H]3C(=O)N[C@@H](C)C(=O)N3C[C@H](C)C[C@H]3C(=O)O[C@H]2C)c1 [Compound 21, (S)-2-(3-(2,3-DIHYDROBENZO[B][1,4]DIOXIN-6-YL)UREIDO)-3-(M-TOLYL)-N-((2R,6S,8AS,14AS,20S,21S,23AS)-2,6,21-TRIMETHYL-5,8,14,19,23-PENTAOXOOCTADECAHYDRO-1H,5H,14H,19H-PYRIDO[2,1-I]DIPYRROLO[2,1-C:2′,1′-L][1]OXA[4,7,10,13]TETRAAZACYCLOHEXADECIN-20-YL)PROPANAMIDE] ({X3-CO}-[Phe(3-Me)][aThr]P[Pip]A[Pro(4R-Me)]; ester 2-C) |  |  | 4.49 ± 0.68 h | 97.3 ± 0.1%
4 | Cc1cccc(C[C@H](NC(=O)Nc2ccc3c(c2)OCCO3)C(=O)N[C@H]2COC(=O)[C@@H]3C[C@@H](C)CN3C(=O)[C@H](C)NC(=O)[C@@H]3CCCCN3C(=O)[C@@H]3CCCN3C2=O)c1 [Compound 22, (S)-2-(3-(2,3-DIHYDROBENZO[B][1,4]DIOXIN-6-YL)UREIDO)-N-((2R,6S,8AS,14AS,20S,23AS)-2,6-DIMETHYL-5,8,14,19,23-PENTAOXOOCTADECAHYDRO-1H,5H,14H,19H-PYRIDO[2,1-I]DIPYRROLO[2,1-C:2′,1′-L][1]OXA[4,7,10,13]TETRAAZACYCLOHEXADECIN-20-YL)-3-(M-TOLYL)PROPANAMIDE] |  |  | 3.57 ± 0.52 h | 97.1 ± 0.2%
5 | CCc1ccc(NC(=O)N[C@@H](Cc2cccc(C)c2)C(=O)N[C@@H]2C(=O)N3C[C@H](O)C[C@H]3C(=O)N3CCCC[C@H]3C(=O)N[C@@H](C)C(=O)N3C[C@H](C)C[C@H]3C(=O)O[C@H]2C)cc1 [Compound 25, (S)-2-(3-(4-ETHYLPHENYL)UREIDO)-N-((2R,6S,8AS,14AS,16R,20S,21S,23AS)-16-HYDROXY-2,6,21-TRIMETHYL-5,8,14,19,23-PENTAOXOOCTADECAHYDRO-1H,5H,14H,19H-PYRIDO[2,1-I]DIPYRROLO[2,1-C:2′,1′-L][1]OXA[4,7,10,13]TETRAAZACYCLOHEXADECIN-20-YL)-3-(M-TOLYL)PROPANAMIDE] ({NH(4-Et-phenyl)-CO}-[Phe(3-Me)][aThr][Hyp][Pip]A[Pro(4R-Me)]; ester 2-C) |  |  | 15.19 ± 2.47 h | 99.2 ± 0.3%
6 | Cc1ccc(NC(=O)N[C@@H](Cc2cccc(C)c2)C(=O)N[C@@H]2C(=O)N3C[C@H](O)C[C@H]3C(=O)N3CCCC[C@H]3C(=O)N[C@@H](C)C(=O)N3C[C@H](C)C[C@H]3C(=O)O[C@H]2C)cc1 [Compound 26, (S)—N-((2R,6S,8AS,14AS,16R,20S,21S,23AS)-16-HYDROXY-2,6,21-TRIMETHYL-5,8,14,19,23-PENTAOXOOCTADECAHYDRO-1H,5H,14H,19H-PYRIDO[2,1-I]DIPYRROLO[2,1-C:2′,1′-L][1]OXA[4,7,10,13]TETRAAZACYCLOHEXADECIN-20-YL)-3-(M-TOLYL)-2-(3-(P-TOLYL)UREIDO)PROPANAMIDE] ({NH(4-Me-phenyl)-CO}-[Phe(3-Me)][aThr][Hyp][Pip]A[Pro(4R-Me)]; ester 2-C) | 2.66 ± 0.3 h | 98.8 ± 0.1% |  | 
7 | Cc1cccc(C[C@H](NC(=O)Nc2ccc3c(c2)OCCO3)C(=O)N[C@@H]2C(=O)N3C[C@H](O)C[C@H]3C(=O)N3CCOC[C@H]3C(=O)N[C@@H](C)C(=O)N3C[C@H](C)C[C@H]3C(=O)O[C@H]2C)c1 [Compound 27, (S)-2-(3-(2,3-DIHYDROBENZO[B][1,4]DIOXIN-6-YL)UREIDO)-N-((6AS,8R,12S,13S,15AS,17R,21S,23AS)-8-HYDROXY-13,17,21-TRIMETHYL-6,11,15,20,23-PENTAOXOOCTADECAHYDRO-6H,11H,15H-[1,4]OXAZINO[3,4-I]DIPYRROLO[2,1-C:2′,1′-L][1]OXA[4,7,10,13]TETRAAZACYCLOHEXADECIN-12-YL)-3-(M-TOLYL)PROPANAMIDE] ({X3-CO}-[Phe(3-Me)][aThr][Hyp][Morpholine(3S-CO)]A[Pro(4R-Me)]; ester 2-C) |  |  | 0.49 ± .495 h | 91.1 ± 1.1%
8 | Cc1cccc(C[C@H](NC(=O)Nc2ccc3c(c2)OCCO3)C(=O)N[C@@H]2C(=O)N3C[C@H](O)C[C@H]3C(=O)N3CCCC[C@H]3C(=O)N[C@@H](C)C(=O)N3C[C@H](C)C[C@H]3C(=O)O[C@H]2C)c1 [Compound 28, (S)-2-(3-(2,3-DIHYDROBENZO[B][1,4]DIOXIN-6-YL)UREIDO)-N-((2R,6S,8AS,14AS,16R,20S,21S,23AS)-16-HYDROXY-2,6,21-TRIMETHYL-5,8,14,19,23-PENTAOXOOCTADECAHYDRO-1H,5H,14H,19H-PYRIDO[2,1-I]DIPYRROLO[2,1-C:2′,1′-L][1]OXA[4,7,10,13]TETRAAZACYCLOHEXADECIN-20-YL)-3-(M-TOLYL)PROPANAMIDE] ({X3-CO}-[Phe(3-Me)][aThr][Hyp][Pip]A[Pro(4R-Me)]; ester 2-C) |  |  | 0.18 ± .185 h | 92.9 ± 2.9%
9 | Cc1cccc(C[C@H](NC(=O)Nc2ccc(Cl)cc2F)C(=O)N[C@@H]2C(=O)N3C[C@H](OP(=O)(O)O)C[C@H]3C(=O)N3CCCC[C@H]3C(=O)N[C@@H](C)C(=O)N3C[C@H](C)C[C@H]3C(=O)O[C@H]2C)c1 [Compound 29, (2R,6S,8AS,14AS,16R,20S,21S,23AS)-20-((S)-2-(3-(4-CHLORO-2-FLUOROPHENYL)UREIDO)-3-(M-TOLYL)PROPANAMIDO)-2,6,21-TRIMETHYL-5,8,14,19,23-PENTAOXOOCTADECAHYDRO-1H,5H,14H,19H-PYRIDO[2,1-I]DIPYRROLO[2,1-C:2′,1′-L][1]OXA[4,7,10,13]TETRAAZACYCLOHEXADECIN-16-YL DIHYDROGEN PHOSPHATE] ({NH(4-Cl-2-F-phenyl)-CO}-[Phe(3-Me)][aThr][X5][Pip]A[Pro(4R-Me)]; ester 2-C) | >4 h | 98.8 ± 8.8% |  | 
